This note sets out measurements from a melting point compilation (Tetko et al.; mined from patent text by program, amines drawn as free bases though some values may be those of a salt).

Where only a bound is given, the exact number is not on record here.

For `CN(C)c1ccc(NC(=O)N(CC2CCCC(CN(C(=O)Nc3ccc(N(C)C)cc3)C3CC4CCC3C4)C2)C2CC3CCC2C3)cc1` (stereo unspecified), the melting point was 110 to 115 °C. Next, `CCS(=O)c1nnc2n1C=Cc1ccccc1C2` (stereo unspecified): 98 to 99 °C; `O=C(NC1CC1)c1cccc(-c2ccc3ccn(-c4ccc(Cl)cc4Cl)c3c2)c1`: 273 to 274 °C; `Cc1cc2ccccn2c1C(=O)C1CCc2nc[nH]c2C1` (stereo unspecified): 260 to 264 °C. Compound `CC1(C)CC(=C(c2ccc(O)cc2)c2ccc(CCCO)cc2)CC(C)(C)C1` returned a melting point of 160 to 161 °C. For `Nc1ccc(-n2ccn(-c3ccc(OCC(F)(F)C(F)F)cc3)c2=O)cc1` the value was 178 to 179 °C.

In turn, `NS(=O)(=O)c1sccc1C(F)=C(F)C(F)(F)F` gave a melting point of 108 to 111 °C. Next, `c1csc(-c2nc3cc(COc4ccc(CCCn5ccnc5)cc4)ccc3o2)c1`: 130 to 131 °C; `Cc1nn(C)c2c1Nc1ccccc1NC2=O`: 189 to 190 °C. `O=C(c1cc(-c2cccnc2)c(N2CCOCC2)s1)c1ccc(Cl)cc1Cl` gave a melting point of 176 °C.

Compound `Cc1cccc(C(N)=NO)c1C` yielded a melting point of 110 to 111 °C. On to `Fc1ccc(Nc2nnc(Cc3ccncc3)c3ccccc23)cc1`, for which the melting point was 129 to 131 °C. For `CCc1n[nH]c(CC)c1CCCCCCOc1ccc(OC)cc1Cl` the value was 91 to 93 °C. `O=S(=O)(/C=C/c1ccc(Br)cc1)CS(=O)(=O)/C=C/c1ccc(Br)cc1` gave a melting point of 213 to 215 °C. For `CN1C(=O)CCC2CC(C3=NNC(=O)CC3CO)=CC=C21` (stereo unspecified) the value was 201 to 204 °C; for `CC(C)c1nc2c(OCc3ccccc3)cc(Br)cc2n1C`, 132 to 133 °C; for `CCNC(=O)c1ccc(C#CCc2ccc3c(c2)C(C)(C)CCC3(C)C)cc1`, 128 to 129 °C. For `CCNS(=O)(=O)Cc1ccc(N)cc1` the value was 161 to 164 °C; for `S=C(NN=C(CCCCl)c1ccccc1)Nc1ccccc1`, 107 to 109 °C. For `C=CCN1C(C)(C)CC(O)CC1(C)C`, the melting point lay within 84 to 85 °C. Next, `COc1ccc2c(c1)C(C(=O)Nc1c(C(C)C)cccc1C(C)C)c1cccnc1CO2` (stereo unspecified): 180 to 181 °C; `COc1cc(-c2cnc3[nH]c(=O)n(CC4CCCCC4)c3n2)ccn1`: 295 to 297 °C. Compound `O=C(c1ccccc1)c1ccc(Oc2ccc(S(=O)(=O)Cc3ccccc3)cn2)cc1` gave a melting point of 146 to 147 °C. Next, `Cc1ccccc1NC(=O)Nc1ccc(-c2c(CCO)sc3ncnc(N)c23)cc1`: 159 to 162 °C; `O=C(CCC1CCN(Cc2ccccc2)CC1)c1ccc(F)cc1`: 65 to 67 °C; `Cc1ccc(S(=O)(=O)CC2COc3ccccc3O2)cc1` (single isomer, unassigned; (+)): 60 °C.

As to `CO/C(=C\C=C\c1cc2ccccc2[nH]1)C(=O)O`, the melting point fell in the range of 189 to 190 °C. For `O=C(Nc1csc(-c2cccnc2)n1)c1nnn[nH]1` the value was 263 to 265 °C; for `CC(C)C[C@@H](C#N)NC(=O)[C@@H]1CCCC[C@@H]1NC(=O)c1ccc2ncsc2c1`, 200 to 201 °C; for `CC(C)n1nc(-c2sc(C(=O)NCC(N)=O)nc2-c2ccccc2)ccc1=O`, 248 to 249 °C. Next, `O=C(Nc1c(C(O)(C(F)(F)F)C(F)(F)F)ccc2ccccc12)c1cccs1`: 191 to 192 °C; `COc1cc(COc2cc(N)c(Cl)cc2C(=O)CCCCN2CCCCCC2)cc(OC)c1`: 137 to 139 °C; `Cc1ccc(S(=O)(=O)Oc2ccc3nc(S(N)(=O)=O)sc3c2)cc1`: 142 °C. For `CC(C)n1nc(-c2nc(Sc3ccc(F)cc3)c(N)nc2-c2ccccc2)ccc1=O` the value was 148 to 150 °C; for `CCCCc1oc2ccccc2c1-c1ncc(-c2ccc3c(Br)c(OCc4nnn[nH]4)ccc3c2)o1`, 235 to 237 °C. As to `c1ccc(-c2ccc3c4c([nH]c3c2)CCNCC4)cc1`, the melting point lay in the range of 220 to 222 °C. For `CC1CCN(C(=O)[C@H]2CC=CC[C@@H]2NC(=O)C(F)(F)F)CC1`, the melting point fell in the range of 169 to 170 °C. `CC(Nc1nc2ccc(Cl)cc2cc1C(=O)O)C(=O)Nc1ccc2ccccc2c1` (stereo unspecified) displayed a melting point of 230 to 243 °C. Regarding `C(#Cc1cccs1)c1ccccc1`, the melting point is 49 to 59 °C. Consider `Cn1c([N+](=O)[O-])cnc1CSc1ccccn1`, for which the melting point amounted to 108 °C. The compound `CC(N=Cc1ccc(O)cc1)c1ccc(Br)cc1` (single isomer, unassigned; (-)) gave a melting point of 156 to 161 °C. For `CCCSc1c(C=NO)c(=O)n(C)c(=O)n1C` the value was 161 to 162 °C; for `CNCCc1ccc2[nH]cc(S(=O)(=O)c3ccccc3)c2c1`, 151 to 154 °C.

For `CC(C)(CCCCCCCCCCCCC1(C(=O)O)CC1)C(=O)O`, the melting point was in the range of 85.6 to 86.7 °C. For `CC1CCC(Nc2nccc(Oc3ccc(NC(=O)c4cc(F)cc(N5CCCCC5)c4)c4ccccc34)n2)CC1` (stereo unspecified) the value was 101 to 102 °C; for `Cc1cn(-c2ccc3nc(NC(=O)c4ccc(C(C)(C)C)cc4)cn3n2)c(C)n1`, 254 to 255 °C. `COC(=O)C(C)(C)n1c(=O)[nH]c2ccccc2c1=O` displayed a melting point of 158 to 159 °C.

With `C=COc1nc2c(c3ccccc13)c1cc(Cl)ccc1n2C`, the melting point is 121 to 124 °C.

The compound `CC(C)(C)c1cc(C=O)ccc1O` registered a melting point of 142 °C. Next, `Cc1cc(C)n(-c2nc(Nc3ccccc3)c3ccccc3n2)n1`: 262 to 265 °C; `CCOC(=O)c1c[nH]cc1C(=O)OCC`: 148 to 149 °C; `O=C1OC(=O)c2c1cccc2C(Cl)(Cl)Cl`: 121 to 124 °C.

In turn, `COC12CC(CN3CCC(c4c[nH]c5ccccc45)CC3)CN(C)C1Cc1c[nH]c3cccc2c13` (stereo unspecified) registered a melting point of 222 to 227 °C. In the case of `Cc1cccc(NC(=O)OCC2CCCCN2C)c1` (stereo unspecified), the melting point was 73.5 to 75.5 °C.

`O=S(=O)(/C=C/c1ccccc1)Nc1ccc(Cl)cc1` showed a melting point of 107 to 109 °C.

As to `CCCOc1cc(C)c(NC(=O)C(C)Br)c(C)c1` (stereo unspecified), the melting point stood at 148 °C. Next, `CCOc1ccccc1C=C1CCc2c1nc1ccc(C(=O)O)cn1c2=O`: 328 to 332 °C; `CC(=O)Nc1ccc(C2=NN(C(=O)CCl)C(C)Cc3cc4c(cc32)OCO4)cc1` (stereo unspecified): 138 to 140 °C; `C=CC(=O)N[C@@H](C=O)[C@@H](O)[C@H](O)[C@H](O)CO`: 124 to 125 °C. In turn, `O=C(CN1C2=NCCN2c2ccccc21)c1ccccc1` came in with a melting point of 178 to 179 °C.

Regarding `COC(=O)C(C)C(C#Cc1ccccc1)c1ccc(OC)c(OC2CCCC2)c1` (racemic), the melting point was 52 to 54 °C. Next, `CC(C)Cn1c(=O)[nH]c(=O)c2nc(-c3ccc(/C=C/C(=O)O)cc3)[nH]c21`: greater than 300 °C. As to `Clc1ccc(Nc2cncc(-n3ncc4ccccc43)n2)cc1`, the melting point was 204 to 207 °C. Next, `O=Cc1ccc(OS(=O)(=O)C(F)(F)F)c2ccccc12`: 44 to 47 °C; `CCCCCCNc1nc[nH]c2nccc1-2`: 147 to 148 °C; `CCCCC(CC)COC(=O)C(C#N)=Cc1ccc(NC(=O)C(CC)CCCC)cc1` (stereo unspecified): 68 °C. For `COc1ccc(CN(C)CCCOc2ccc(S(=O)(=O)c3c(C(C)C)n(C)c4ccccc34)cc2)cc1OC` the value was 105 °C.

`COCCNC(N)=Nc1nc(-c2cccc(CNC(=O)CN)c2)cs1`: the melting point lay in the range of 66 to 67 °C. Next, `O=C(Oc1ccccn1)c1cc2cc(CCl)ccc2oc1=O`: 125 to 129 °C; `Cc1c(-c2ccccc2)c(N2CC[C@H](N(C)C)C2)c2oc(-c3ccccc3N)nc2c1C#N`: 259 to 263 °C. Next, `Cc1ccc2c(c1)N=C(N1CCN(C)CC1)c1cc(Br)cc3ccn-2c13`: 153 to 155 °C; `CCCCCCC(C)(C)c1cc(OC)c(C2C(=O)[C@]3(C)CC[C@H]2C3(C)C)c(OC)c1` (stereo partly specified): 64 to 65 °C; `Cc1cc(Br)cnc1CCCCNN1Cc2ccccc2S(=O)(=O)N1`: 187 to 188 °C. Next, `COC(OC)c1ncc[nH]1`: 122 °C.

Regarding `Cc1nn(C)c2nc3ccccc3c(Cl)c12`, the melting point lay within 127 to 129 °C.

The compound `CC(C)Cc1ccc2c(c1)OC(=O)C2` returned a melting point of 24 to 25 °C. For `O=c1[nH]c2ccc([N+](=O)[O-])cc2c(O)c1[N+](=O)[O-]` the value was 197 to 198 °C; for `COC(=O)CCCOc1ccc(C=O)cc1OC`, 69 °C; for `Cc1ccc(C(O)c2ccc(N)cc2)nc1` (stereo unspecified), 114 to 115 °C. The compound `CC(=O)C(C)(C)c1nsc2ccc(-n3c(=O)cc(C(F)(F)F)n(C)c3=O)cc12` gave a melting point of 195 to 196 °C. Regarding `O=C1[C@H]2CCC[C@H]2Nc2ccc(F)cc2N1Cc1ccccc1` (relative stereo), the melting point was 124 to 126 °C. Next, `C=CCNc1cc(C(=O)OCC)nc2cn[nH]c12`: 140 to 145 °C; `COc1cc(N)c(Cl)cc1C(=O)NCC1CCN(CCCCCCOCc2ccccc2)CC1`: 91 to 95 °C. For the compound `CC(C)=CCOc1ccc(C(=O)C=Cc2cccc([N+](=O)[O-])c2)c(O)c1`, the melting point lay within 125 to 126 °C. For `COc1cc(OCc2ccccn2)ccc1C=CC(=O)CC(C)=O` the value was 81 to 82 °C. For `CC(C)c1cccc(C(C)C)c1NC(=O)CN1C(=O)N(c2ccc(S(C)(=O)=O)cc2)C2(CCCCC2)C1=O` the value was 250 °C.

For `CCCCCc1ccc(CCCCCC(=O)O)cc1`, the melting point lay in the range of 29 to 30 °C.

For `NC(CF)(Cc1ccc(O)c(O)c1)C(=O)O` (stereo unspecified), the melting point was found to be 230 °C.

Turning to `O=C(O)c1ccc2cccnc2c1O`, the melting point lay in the range of 264 to 266 °C.

As to `CCNC(=O)ON=C(C)C1=CCCN(C)C1`, the melting point lay within 74 to 78 °C. The compound `COC(=O)c1ccc2c(=O)n(CC(C)C)c(CNC(=O)OC(C)(C)C)c(-c3ccccc3F)c2c1` showed a melting point of 180 to 181 °C.
